According to patent publication US20180055816A1, “PYRANONAPHTHOQUINONE COMPOUNDS AND METHODS OF USE THEREOF” (University of Kentucky Research Foundation, priority 2016, published 2018):

Key:
HCT116 cells = assay: Cell growth / cytotoxicity in HCT116 cells; assay type: cell-based, human; conditions: HCT116; 0.5 μM FB or UCF76-A versus 100 nM rapamycin, 0.5 μM AZD8055
Method: (§1) Compounds that pass this single dose filter are then tested in a CRC (HCT116) in vitro cytotoxicity assay and, in parallel, an in vitro assay to assess propensity for intracellular reactive oxygen species (ROS) production using the redox sensitive probe CeIIROX® Deep Red reagent (Invitrogen) by flow cytometry analysis (47).
Cell growth was assessed as described previously. Briefly, 5×10^4 cells were seeded in 6-well plates in triplicates. After 24 h, cells were treated with the indicated compounds and incubated at 37° C. The cells were cultured for 3 days and the number of viable cells was counted using the Vi-CELL XR 2.03 (Beckman Coulter, Brea, Calif.). For apoptosis, cells were analyzed by flow cytometry using the Annexin V-FITC Apoptosis Detection Kit according to the manufacturer's protocol (BD Biosciences, San Jose, Calif.).

[1] = test system: intracellular reactive oxygen species (ROS); assay: Intracellular ROS production, CellROX Deep Red flow cytometry, HCT116 cells; assay type: cell-based, human; conditions: HCT116, 2 μM, 1 h
Method: as §1
The ROS production was determined using the CellROX Deep Red Flow Cytometry Assay Kit according to the manufacturer's protocol (Life Technologies). Briefly, cells were treated with 2 μM of the indicated compounds or DMSO as control for 1 h. After treatment, cells were incubated with 0.5 μM of CellROX Deep Red reagent for 1 h at 37° C., washed twice with PBS and immediately analyzed by a FACScan flow cytometer. For the measurement of cellular H2O2 level, cells were treated with 2 μM of the indicated compounds for 5 h.

[2] = test system: cap-dependent translation; assay: Cap-dependent translation bicistronic luciferase reporter assay in HCT116 cells; assay type: cell-based, human; conditions: 12 h
p70S6K phosphorylation = p70S6K phosphorylation in HCT116 cells (Western blot); assay type: cell-based, human; conditions: HCT116, 12 h; 2 μM FB or UCF76-A, 100 nM rapamycin, 0.5 μM AZD8055
Method: (§2) HCT116 cells were treated with 1 μM MK2206 and 100 nM PD0325901 alone and in combination, 100 nM rapamycin, 0.5 μM AZD8055, 2 μM UCF76-A or 2 μM FB for 12 h followed by Western blot analysis for the indicated proteins.
(§3) Cells were lysed in NP-40 lysis buffer (50 mM Tris-HCl, pH 7.5, 150 mM NaCl, 1 mM EDTA, 1% NP-40, 10% glycerol, protease and phosphatase inhibitor cocktail). Western blot analysis were performed using equivalent total protein loadings as described previously. For immunoprecipitation, the cell lysates were incubated with the indicated antibody overnight followed by incubation with a 50% slurry of protein G sepharose beads for 3 h at 4° C. The beads were washed three times with the lysis buffer, and the immunoprecipitated protein complexes were resuspended in 2× Laemmli sample buffer followed by western blot analysis.

caspase 3 = assay: Caspase 3 activation / cleaved PARP in HCT116 cells (Western blot); assay type: cell-based, human; conditions: HCT116, 2 μM, 12 h
Method: as §2, §3

4E-BP1 phosphorylation [3] = assay: 4E-BP1 phosphorylation in DLD-1 colon cancer cells (Western blot); assay type: cell-based, human; conditions: DLD-1 cells, 2 μM, 12 hours
Method: (§4) Cells were treated with 100 nM rapamycin, 0.5 μM AZD8055, 2 μM FB, 2 μM UCF76-A or DMSO control for 12 hours followed by Western blot analysis for the indicated proteins.
as §3

4E-BP1 phosphorylation [4] = assay: 4E-BP1 phosphorylation in MDA-MB-231 breast cancer cells (Western blot); assay type: cell-based, human; conditions: MDA-MB-231 cells, 2 μM, 12 hours
Method: as §4, §3

Grx3 = target: T1, Grx3 (Homo sapiens, UniProt O76003); assay: Affinity pull-down / binding to Grx3; conditions: streptavidin pull-down, competition, Western blot
T1 construct: endogenous in cells; host or cells: HeLa cell lysates; HCT116 cell lysates
T1 sequence (O76003 1-335): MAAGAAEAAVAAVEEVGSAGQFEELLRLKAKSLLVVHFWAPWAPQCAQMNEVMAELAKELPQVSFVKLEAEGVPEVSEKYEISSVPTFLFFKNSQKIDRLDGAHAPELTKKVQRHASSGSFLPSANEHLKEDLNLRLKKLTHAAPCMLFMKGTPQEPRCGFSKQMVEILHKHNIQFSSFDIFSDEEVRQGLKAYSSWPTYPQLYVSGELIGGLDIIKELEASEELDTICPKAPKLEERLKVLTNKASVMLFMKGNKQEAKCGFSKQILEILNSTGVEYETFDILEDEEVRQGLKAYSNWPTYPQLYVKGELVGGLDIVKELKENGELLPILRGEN
Method: The precipitates were resolved by SDS-PAGE, and the gel was stained with Coomassie blue. (C) Sequences illustrating amino acids and peptides of Prx1 and Grx3 identified by mass spectrometry analysis. The unique bands as shown by d7-pull down in the experiment for FIG. 20B were excised and subjected to in-gel tryptic digestion and analysis by MS, wherein the identified amino acids and peptides are shown in red characters. (D) Western blot illustrating that HCT116 cell lysates were incubated with different concentrations of d5 or d7 in the absence or presence of a ten-fold excess of FB for 3 h, followed by pull-down with streptavidin-agarose and Western blot analysis for the indicated proteins.
FIGS. 21A-D show images illustrating that the active probe d7 binds to and co-localizes with Prx1 and Grx3. (A) and (B) The recombinant Prx1 (A) or Grx3 (B) was incubated with d7 for 2 hours, followed by streptavidin pull down and Western blot analysis for the indicated proteins. (C) and (D) HCT116 cells were incubated with 25 μM d5, 25 μM d7 or DMSO as control for 5 hours, followed by confocal sections of the cells staining for Prx1 (C) or Grx3 (D) (red), biotin (green) and DAPI (blue). Scale bars, 10 μm.
HeLa cell pellets were purchased from National Cell Culture Center (Minneapolis, Minn.) and lysed in 20 ml of the NP-40 lysis buffer. […]

For `CCCC1OC2CC(=O)OC2C2=C1C(=O)c1c(O)cccc1C2=O` (centres unmarked) [FB, frenolicin B], the “inhibition of CRC cell growth compared with mTOR inhibitors” value (HCT116 cells) was “more potent than mTOR inhibitors”, the “cellular ROS” value [1] was “marked increase” and the “inhibition of cap-dependent translation” value [2] was “effectively inhibit”. For the same compound, the “inhibition of p70S6K phosphorylation” value (p70S6K phosphorylation) was “only weakly inhibited”, the “activation of caspase 3 with induction of cleaved PARP” value (caspase 3) was “potent activators” and the “inhibition of 4E-BP1 phosphorylation” value (4E-BP1 phosphorylation [3]) was “selectively inhibit”. The “inhibition of 4E-BP1 phosphorylation” value (4E-BP1 phosphorylation [4]) was “selectively inhibit” and the “binding to Grx3” value (Grx3) was “directly targets”.
